According to patent publication US11793827B2, “Adenosine derivative and pharmaceutical composition comprising the same” (Brii Biosciences, Inc., priority 2021, dated 2023):

What was measured:
[1] = Plasma stability (human plasma); conditions: for Formation of EFdA at 30 min: human plasma; for half-life at 2 µM: human, pH 7.4
Procedure: The pooled frozen plasma was thawed in a water bath at 37° C. prior to experiment. Plasma was centrifuged at 4000 rpm for 5 min and the clots were removed if any. The pH will be adjusted to 7.4±0.1 if required.
Preparation of test compounds and positive control (propantheline bromide): 1 mM intermediate solution was prepared by diluting 10 μL of the stock solution with 90 μL MeOH; 1 mM intermediate of positive control Propantheline was prepared by diluting 10 μL of the stock solution with 90 μL ultrapure water. 100 μM dosing solution was prepared by diluting 20 μL of the intermediate solution (1 mM) with 180 μL MeOH. 98 μL of blank plasma was spiked with 2 μL of dosing solution (100 μM) to achieve 2 μM of the final concentration in duplicate and samples were incubated at 37° C. in a water bath. […] Centrifuged sample plates at 4,000 rpm for 10 min. An aliquot of supernatant (100 μL) was transferred from each well to another plates.

[2] = Liver S9 stability (human liver S9); format: in vitro ADME; conditions: for half-life at 1 µM: human liver S9, 37° C.; for Formation of EFdA at 30 min: human liver S9, 30 min
Procedure: Add 600 μL/well stop solution (cold in 4° C., including 100 ng/mL Tolbutamide/100 ng/mL Labetalol) to terminate the TO plate, then put it on ice. Dispense 840 μL/well S9 solution to 96-well plate as reservoir according to plate map. Then add 100 μL/well to every plate by Apricot. Incubate S9 solution and compound at 37° C. for about 10 min except NCF60 and TO. After adding S9 solution and 98μ LPB buffer to NCF60, incubate at 37° C. without pre-warming, start timer 1. After 60 min, add 600 μL/well stop solution to terminate the reaction. After pre-warming, dispense 760 μL/well cofactor solution to 96-well plate as reservoir according to plate map. Then add 98 μL/well to every plate by Apricot to start reaction. Incubate at 37° C., start timer 2, Add 600 μL/well stop solution (cold in 4° C., including 100 ng/mL Tolbutamide and Labetalol) to terminate the reaction. Samples are centrifuged at 4000 rpm for 20 min. While centrifuging, load 8× new 96-well plate with 300 μL HPLC water, then transfer 100 μL supernatant, mix with water for LC/MS/MS, transferred to Bioanalytical Services for LC-MS/MS analysis. Use equation of first order kinetics [NT]1/2 and CL: Equation of first order kinetics: [formula] [formula] [formula] [formula]

SMILES	Formation of EFdA at 30 min [1]	half-life at 2 µM ([1]; pooled plasma)	half-life at 1 µM [2]	Formation of EFdA at 30 min [2]	half-life at 2 µM ([1]; plasma)
C#C[C@]1(COC(=O)OCCCC23CC4CC(CC(C4)C2)C3)O[C@@H](n2cnc3c(N)nc(F)nc32)C[C@@H]1OC(=O)C(C)C [Compound 21, ((2R,3S,5R)-2-((((3-(1-adamantyl)propoxy)carbonyl)oxy)methyl)-5-(6-amino-2-fluoro-9H-purin-9-yl)-2-ethynyltetrahydrofuran-3-yl) isobutyrate]	Yes	50 to 200 min	< 50 min	Yes	–
C#C[C@]1(COC(=O)OCCCC23CC4CC(CC(C4)C2)C3)O[C@@H](n2cnc3c(N)nc(F)nc32)C[C@@H]1OC(=O)OCCCC12CC3CC(CC(C3)C1)C2 [Compound 22, ((2R,3S,5R)-3-[3-(1-adamantyl)propoxycarbonyloxy]-5-(6-amino-2-fluoro-9H-purin-9-yl)-2-ethynyl-tetrahydrofuran-2-yl)methyl 3-(1-adamantyl)propyl carbonate]	No	> 200 min	50 to 200 min	Yes	–
C#C[C@]1(COC(=O)CCC23CC4CC(CC(C4)C2)C3)O[C@@H](n2cnc3c(N)nc(F)nc32)C[C@@H]1O [Compound 14, ((2R, 3S, 5R)-5-(6-amino-2-fluoro-9H-purin-9-yl)-2-ethynyl-3-hydroxy-tetrahydrofuran-2-yl)methyl 3-(1-adamantyl)propanoate]	Yes	< 50 min	< 50 min	Yes	–
C#C[C@]1(COC(=O)OCCC23CC4CC(CC(C4)C2)C3)O[C@@H](n2cnc3c(N)nc(F)nc32)C[C@@H]1OC(=O)OCCC12CC3CC(CC(C3)C1)C2 [Compound 9, ((2R,3S,5R)-2-((((2-(1-adamantyl)ethoxy)carbonyl)oxy)methyl)-5-(6-amino-2-fluoro-9H-purin-9-yl)-2-ethynyltetrahydrofuran-3-yl) 2-(1-adamantyl)ethyl carbonate]	No	> 200 min	< 50 min	Yes	–
C#C[C@]1(CO)O[C@@H](n2cnc3c(N)nc(F)nc32)C[C@@H]1OC(=O)OCCCC12CC3CC(CC(C3)C1)C2 [Compound 11, ((2R,3S,5R)-5-(6-amino-2-fluoro-9H-purin-9-yl)-2-ethynyl-2-(hydroxymethyl)tetrahydrofuran-3-yl) 3-(1-adamantyl)propyl carbonate]	–	–	< 50 min	Yes	–
C#C[C@]1(COC(=O)OCC23CC4CC(CC(C4)C2)C3)O[C@@H](n2cnc3c(N)nc(F)nc32)C[C@@H]1OC(=O)OCC [Compound 24, ((2R,3S,5R)-2-(1-adamantylmethoxycarbonyloxymethyl)-5-(6-amino-2-fluoro-9H-purin-9-yl)-2-ethynyl-tetrahydrofuran-3-yl) ethyl carbonate]	Yes	–	< 50 min	Yes	50 to 200 min
C#C[C@]1(COC(=O)OCC23CC4CC(CC(C4)C2)C3)O[C@@H](n2cnc3c(N)nc(F)nc32)C[C@@H]1OC(=O)C(C)C [Compound 20, ((2R,3S,5R)-2-(((((1-adamantyl)methoxy)carbonyl)oxy)methyl)-5-(6-amino-2-fluoro-9H-purin-9-yl)-2-ethynyltetrahydrofuran-3-yl) isobutyrate]	–	–	< 50 min	Yes	–
C#C[C@]1(COC(=O)OC23CC4CC(CC(C4)C2)C3)O[C@@H](n2cnc3c(N)nc(F)nc32)C[C@@H]1OC(=O)OC12CC3CC(CC(C3)C1)C2 [Compound 6, (((2R,3S,5R)-3-((((1-adamantyl)oxy)carbonyl)oxy)-5-(6-amino-2-fluoro-9H-purin-9-yl)-2-ethynyltetrahydrofuran-2-yl)methyl) 1-adamantyl carbonate]	No	> 200 min	< 50 min	Yes	–
C#C[C@]1(CO)O[C@@H](n2cnc3c(N)nc(F)nc32)C[C@@H]1OC(=O)OCCCCC12CC3CC(CC(C3)C1)C2 [Compound 13, ((2R,3S,5R)-5-(6-amino-2-fluoro-9H-purin-9-yl)-2-ethynyl-2-(hydroxymethyl)tetrahydrofuran-3-yl) 4-(1-adamantyl)butyl carbonate]	–	–	< 50 min	Yes	–
C#C[C@@]12COC(=O)OCCCOC(=O)O[C@H]1C[C@H](n1cnc3c(N)nc(F)nc31)O2 [Compound 16, (10aR,12R,13aS)-12-(6-amino-2-fluoro-9H-purin-9-yl)-10a-ethynylhexahydro-4H,10H-furo[3,2-d][1,3,7,9]tetraoxacyclododecine-2,8-dione]	Yes	–	–	–	50 to 200 min
C#C[C@]1(COC(=O)CCCC23CC4CC(CC(C4)C2)C3)O[C@@H](n2cnc3c(N)nc(F)nc32)C[C@@H]1O [Compound 15, ((2R, 3S, 5R)-5-(6-amino-2-fluoro-9H-purin-9-yl)-2-ethynyl-3-hydroxy-tetrahydrofuran-2-yl)methyl 4-(1-adamantyl)butanoate]	Yes	< 50 min	< 50 min	Yes	–
C#C[C@]1(COC(=O)OC23CC4CC(CC(C4)C2)C3)O[C@@H](n2cnc3c(N)nc(F)nc32)C[C@@H]1OC(=O)C(C)C [Compound 28, ((2R,3S,5R)-2-(1-adamantyloxycarbonyloxymethyl)-5-(6-amino-2-fluoro-9H-purin-9-yl)-2-ethynyl-tetrahydrofuran-3-yl) 2-methylpropanoate]	No	> 200 min	< 50 min	Yes	–
C#C[C@]1(COC(=O)OCCCCC23CC4CC(CC(C4)C2)C3)O[C@@H](n2cnc3c(N)nc(F)nc32)C[C@@H]1OC(=O)OCC [Compound 25, ((2R,3S,5R)-2-[4-(1-adamantyl)butoxycarbonyloxymethyl]-5-(6-amino-2-fluoro-9H-purin-9-yl)-2-ethynyl-tetrahydrofuran-3-yl) ethyl carbonate]	Yes	–	< 50 min	Yes	50 to 200 min
C#C[C@]1(COC(=O)OCCC23CC4CC(CC(C4)C2)C3)O[C@@H](n2cnc3c(N)nc(F)nc32)C[C@@H]1OC(=O)C(C)C [Compound 19, ((2R,3S,5R)-2-((((2-(1-adamantyl)ethoxy)carbonyl)oxy)methyl)-5-(6-amino-2-fluoro-9H-purin-9-yl)-2-ethynyltetrahydrofuran-3-yl) isobutyrate]	No	< 50 min	< 50 min	Yes	–
C#C[C@]1(COC(=O)OC23CC4CC(CC(C4)C2)C3)O[C@@H](n2cnc3c(N)nc(F)nc32)C[C@@H]1OC(=O)OCC [Compound 27, 1-adamantyl ((2R,3S,5R)-5-(6-amino-2-fluoro-purin-9-yl)-3-ethoxycarbonyloxy-2-ethynyl-tetrahydrofuran-2-yl)methyl carbonate]	No	–	< 50 min	Yes	> 200 min
C#C[C@]1(COC(=O)OC23CC4CC(CC(C4)C2)C3)O[C@@H](n2cnc3c(N)nc(F)nc32)C[C@@H]1O [Compound 4, ((2R, 3S, 5R)-5-(6-amino-2-fluoro-9H-purin-9-yl)-2-ethynyl-3-hydroxy-tetrahydrofuran-2-yl)methyl 1-adamantyl carbonate]	Yes	> 200 min	< 50 min	Yes	–
C#C[C@]1(COC(=O)C23CC4CC(CC(C4)C2)C3)O[C@@H](n2cnc3c(N)nc(F)nc32)C[C@@H]1O [Compound 3, ((2R, 3S, 5R)-5-(6-amino-2-fluoro-9H-purin-9-yl)-2-ethynyl-3-hydroxy-tetrahydrofuran-2-yl)methyl adamantane-1-carboxylate]	No	< 50 min	< 50 min	Yes	–
C#C[C@@]12COC(=O)OCCCCCC(=O)OC1C[C@H](n1cnc3c(N)nc(F)nc31)O2 (stereo in doubt) [Compound 29, (1R,13R,15R)-15-(6-amino-2-fluoro-9H-purin-9-yl)-13-ethynyl-2,9,11,14-tetraoxabicyclo[11.3.0]hexadecane-3,10-dione]	Yes	< 50 min	< 50 min	Yes	–
